The text below walks through data of patent US8841301B2, “Selective NR2B antagonists” (Bristol-Myers Squibb Company, priority 2011, dated 2014).

In the first test the target is hNR2B (Homo sapiens, UniProt Q05586+Q13224). As to the kind of experiment: Electrophysiology NMDA receptor experiments: two electrode voltage-clamp in Xenopus laevis oocytes expressing GluN1/GluN2 subunits. The conditions noted are these: oocytes voltage clamped at −40 mV; 50 μM glutamate, 30 μM glycine; read-out: Rating (hNR2B IC50). It is filed as cell-based. The method, then: Electrophysiology NMDA Receptor Experiments.
hNR2B, sequence (Q13224 27-1484, other chains not shown): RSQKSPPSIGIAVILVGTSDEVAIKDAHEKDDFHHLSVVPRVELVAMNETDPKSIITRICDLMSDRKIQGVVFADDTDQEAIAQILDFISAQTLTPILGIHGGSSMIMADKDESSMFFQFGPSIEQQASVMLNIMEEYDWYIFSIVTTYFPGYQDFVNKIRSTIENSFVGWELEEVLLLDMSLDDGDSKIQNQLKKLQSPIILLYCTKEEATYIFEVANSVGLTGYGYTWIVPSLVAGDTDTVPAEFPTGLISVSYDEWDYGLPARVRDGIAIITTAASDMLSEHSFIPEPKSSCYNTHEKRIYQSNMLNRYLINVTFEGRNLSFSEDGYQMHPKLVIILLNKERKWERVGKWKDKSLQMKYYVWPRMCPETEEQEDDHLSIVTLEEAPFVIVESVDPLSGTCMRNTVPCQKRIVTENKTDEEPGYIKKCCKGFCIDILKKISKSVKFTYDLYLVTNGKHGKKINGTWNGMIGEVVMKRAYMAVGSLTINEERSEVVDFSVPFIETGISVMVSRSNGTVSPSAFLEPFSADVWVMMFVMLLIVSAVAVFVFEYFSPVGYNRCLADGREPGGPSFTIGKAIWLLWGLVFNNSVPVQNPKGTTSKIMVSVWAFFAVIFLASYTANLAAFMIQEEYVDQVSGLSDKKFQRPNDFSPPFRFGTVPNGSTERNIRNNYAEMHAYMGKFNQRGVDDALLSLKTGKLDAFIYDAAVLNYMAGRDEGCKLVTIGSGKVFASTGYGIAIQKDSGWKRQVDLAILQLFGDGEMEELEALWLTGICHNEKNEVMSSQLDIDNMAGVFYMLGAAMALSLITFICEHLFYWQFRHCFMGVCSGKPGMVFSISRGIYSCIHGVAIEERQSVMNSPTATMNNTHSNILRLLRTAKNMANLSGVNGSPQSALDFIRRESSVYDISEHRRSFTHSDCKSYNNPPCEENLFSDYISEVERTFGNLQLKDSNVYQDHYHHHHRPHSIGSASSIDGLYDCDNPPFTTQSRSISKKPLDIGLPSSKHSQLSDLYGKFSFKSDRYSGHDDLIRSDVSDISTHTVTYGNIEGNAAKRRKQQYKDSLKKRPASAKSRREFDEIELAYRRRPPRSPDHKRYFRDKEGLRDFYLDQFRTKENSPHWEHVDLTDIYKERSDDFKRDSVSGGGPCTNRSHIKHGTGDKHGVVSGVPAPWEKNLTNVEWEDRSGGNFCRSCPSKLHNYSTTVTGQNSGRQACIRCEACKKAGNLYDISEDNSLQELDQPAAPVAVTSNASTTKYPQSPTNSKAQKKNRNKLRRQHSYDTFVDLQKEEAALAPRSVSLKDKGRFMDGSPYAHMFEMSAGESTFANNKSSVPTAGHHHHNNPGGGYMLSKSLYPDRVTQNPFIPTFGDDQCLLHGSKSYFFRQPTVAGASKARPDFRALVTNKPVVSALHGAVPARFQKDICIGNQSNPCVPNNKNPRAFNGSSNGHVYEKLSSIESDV
Stage V and VI oocytes were surgically removed from the ovaries of large, well-fed and healthy Xenopus laevis anesthetized with 3-amino-benzoic acid ethyl ester (3 gm/l). Clusters of isolated oocytes were incubated with 292 U/ml Worthington (Freehold, N.J.) type IV collagenase or 1.3 mg/ml collagenase (Life Technologies, Gaithersburg, Md.; 17018-029) for 2 hr in Ca^2+-free solution comprised of (in mM) 115 NaCl, 2.5 KCl, and 10 HEPES, pH 7.5, with slow agitation to remove the follicular cell layer. Oocytes were then washed in the same solution supplemented with 1.8 mM CaCl2 and maintained in Barth's solution comprised of (in mM): 88 NaCl, 1 KCl, 2.4 NaHCO3, 10 HEPES, 0.82 MgSO4, 0.33 Ca(NO3)2, and 0.91 CaCl2 and supplemented with 100 μg/ml gentamycin, 10 μg/ml streptomycin, and 10 μg/ml penicillin. Oocytes were manually defolliculated and injected within 24 hrs of isolation with 3-5 ng of human GluN1 subunit cRNA and 7-10 ng of human GluN2 cRNA subunit in a 50 nl volume, and incubated in Barth's solution at 18° C. for 2-7 d. Glass injection pipettes had tip sizes ranging from 10-20 microns, and were backfilled with mineral oil. cRNA was synthesized from linearized template cDNA for rat glutamate receptor subunits according to manufacturer specifications (Ambion).
Two electrode voltage-clamp recordings were made 2-7 days post-injection. Oocytes were placed in a dual-track plexiglass recording chamber with a single perfusion line that splits in a Y-configuration to perfuse two oocytes. Dual recordings were made at room temperature (23° C.) using two Warner OC725B two-electrode voltage clamp amplifiers, arranged as recommended by the manufacturer. Glass microelectrodes (1-10 Megaohms) were filled with 300 mM KCl (voltage electrode) or 3 M KCl (current electrode). The bath clamps communicated across silver chloride wires placed into each side of the recording chamber, both of which were assumed to be at a reference potential of 0 mV. Oocytes were perfused with a solution comprised of (in mM) 90 NaCl, 1 KCl, 10 HEPES, […] and 0.5 BaCl2; pH 7.4, adjusted by addition of NaOH. Oocytes were recorded under voltage clamp at −40 mV. Final concentrations for glutamate and glycine were 50 μM and 30 μM, respectively. Concentration-response curves for experimental compounds were obtained by applying in successive fashion maximal glutamate/glycine, followed by glutamate/glycine plus variable concentrations of experimental compounds. Dose response curves consisting of four to eight concentrations were obtained in this manner. The baseline leak current at −40 mV was measured before and after recording, and the full recording linearly corrected for any change in leak current. The level of inhibition by applied experimental compounds was expressed as a percent of the initial glutamate response, and averaged together across oocytes from multiple experiments. Results were pooled, and the average percent responses at antagonist concentrations were fit by the equation, Percent Response=(100−minimum)/(1+([conc]/IC50)^nH)+minimum where minimum is the residual percent response in saturating concentration of the experimental compounds, IC50 is the concentration of antagonist that causes half of the achievable inhibition, and nH is a slope factor describing steepness of the inhibition curve. […]
For NMDA receptor subtype selectivity experiments human GluN1/GluN2A, GluN1/GluN2C, and GluN1/GluN2D cRNAs were expressed in Xenopus laevis as described above. Here, 10 μM concentrations of the antagonist was perfused with 50 μM glutamate and 30 μM glycine onto the oocyte for two min and the remaining current in the presence of the antagonist was compared to the maximal current obtained with 50 μM glutamate and 30 μM glycine alone (defined as 100%). When IC50 determinations were made against other NMDA receptor subtypes the protocol as described above was followed. […]
In general terms: Two-electrode voltage clamp holds a large cell at a set potential and records current.
In general, IC50 refers to the point on the concentration scale where inhibition reaches its midpoint. For `Cc1ccc(Nc2ncc(CCc3ccc4c(c3)C(C)(C)OC(=O)N4)cn2)cc1F` [Example 142], the IC50 is 1000 to 10000 nM.
Same read-out and setting: for `O=C1Nc2ccc(CCc3cnc(Nc4ccc(OC(F)F)c(F)c4)nc3)cc2CO1` [Example 146] the value was < 200 nM.
Consider `O=c1[nH]c2ccc(OCc3cnc(Nc4ccc(OC(F)(F)F)cc4)nc3)cc2o1` [Example 80], for which the IC50 was < 200 nM.
Regarding `FC(F)(F)Oc1ccc(Nc2ncc(COc3ccc4[nH]nnc4c3)cn2)cc1` [Example 68], the half-inhibitory concentration (IC50) was < 200 nM.
Take `N#Cc1n[nH]c2ccc(CCc3cnc(Nc4ccc(OC(F)F)cc4)nc3)cc12` [Example 124]: the IC50 was > 10000 nM.
Take `COc1ncc(Nc2ncc(COc3ccc4[nH]c(=O)ccc4c3)cn2)cc1C` [Example 49]: the IC50 was < 200 nM.
On to `Cc1cc(Nc2ncc(CCc3ccc4c(c3)C(C)(C)OC(=O)N4)cn2)ccc1OC(F)F` [Example 147], for which the IC50 lay within 1000 to 10000 nM.
Regarding `O=c1ccc2cc(OCc3ccc(NCc4ccc(F)cc4)nc3)ccc2[nH]1` [Example 7], the IC50 was < 200 nM.
Consider `FC(F)Oc1ccc(Nc2ncc(COc3ccc4[nH]ncc4c3Cl)cn2)cc1` [Example 66], for which the IC50 is < 200 nM.
On to `O=C1Cc2cc(OCc3cnc(Nc4ccc(OC(F)F)c(F)c4)nc3)ccc2N1` [Example 85], for which the IC50 was < 200 nM.
Turning to `O=c1ccc2cc(C3CC3c3cnc(Nc4ccc(OC(F)F)cc4)nc3)ccc2[nH]1` (centres unmarked) [Example 110], the IC50 is < 200 nM.
On to `CC1(C)OC(=O)Nc2ccc(CCc3cnc(Nc4ccc(OC(F)F)cc4)nc3)cc21` [Example 138], for which the IC50 was > 10000 nM.
For `O=c1ccc2cc(OCc3cnc(NCc4ccc(F)cc4)nc3)ccc2[nH]1` [Example 27], the IC50 was < 200 nM.
As for `CC(Cc1cnc(Nc2ccc(OC(F)F)cc2)nc1)c1ccc2[nH]c(=O)ccc2c1` (centres unmarked) [Example 122], the IC50 was < 200 nM.
The same measure, in the same setting: for `O=c1ccc2cc(OCc3cncc(NCc4ccc(Cl)cc4)n3)ccc2[nH]1` [Example 100] the value was 201 to 1000 nM; for `CCc1ccc(Nc2ncc(CCc3ccc4c(c3)C(C)(C)OC(=O)N4)cn2)cc1F` [Example 141], 1000 to 10000 nM.
For the molecule `O=C1Nc2ccc(CCc3cnc(Nc4ccc(OC(F)F)c(Cl)c4)nc3)cc2CO1` [Example 143], the IC50 was < 200 nM.
For the molecule `O=c1ccc2cc(OCc3ccc(Nc4ccc(OC(F)F)cc4)nc3)ccc2[nH]1` [Example 3], the IC50 is < 200 nM.
For `CC1(C)OC(=O)Nc2ccc(CCc3cnc(Nc4ccc(OC(F)F)c(F)c4)nc3)cc21` [Example 148], the IC50 fell in the range of 1000 to 10000 nM.
Take `CCCc1ccc(Nc2ncc(COc3ccc4[nH]c(=O)ccc4c3)cn2)cc1` [Example 43]: the IC50 was < 200 nM.
Still for that read-out and setting: the figure for `O=c1ccc2cc(OCc3cnc(Nc4ccc(OC(F)F)cc4)nc3C(F)(F)F)ccc2[nH]1` [Example 53] is < 200 nM; for `O=c1ccc2cc(OCc3cnc(Nc4ccc(OC(F)F)nc4)nc3)ccc2[nH]1` [Example 50] it is < 200 nM; for `O=C1Nc2ccc(OCc3cnc(Nc4ccc(OC(F)F)c(F)c4)nc3)cc2CO1` [Example 84] it is < 200 nM.
`FC(F)(F)Oc1ccc(Nc2ncc(COc3ccc4[nH]ncc4c3Cl)cn2)cc1` [Example 64]: the IC50 is < 200 nM.
As for `Cc1ccc(Nc2ncc(COc3ccc4[nH]c(=O)ccc4c3)cn2)cc1C` [Example 41], the IC50 is < 200 nM.
Regarding `Cc1cc(Nc2ncc(COc3ccc4[nH]ncc4c3Cl)cn2)ccc1OC(F)F` [Example 73], the IC50 is < 200 nM.
In the case of `O=c1ccc2cc(OCc3cnc(NCc4ccc(Cl)c(Cl)c4)nc3)ccc2[nH]1` [Example 21], the IC50 was > 10000 nM.
With `Oc1ccc(OCc2ccc(Nc3ccc(OC(F)F)cc3)nc2)cc1` [Example 10], the IC50 is < 200 nM.
As for `FC(F)Oc1ccc(Nc2ncc(CCc3cccc4[nH]ncc34)cn2)cc1` [Example 111], the IC50 was in the range of 1000 to 10000 nM.
`COc1ccc(Nc2ncc(COc3ccc4[nH]c(=O)ccc4c3)cn2)cc1` [Example 24]: the IC50 is < 200 nM.

Staying with this test, now noted: oocytes voltage clamped at −40 mV; 50 μM glutamate, 30 μM glycine; read-out: hNR2B IC50.
Turning to `COc1nc(Nc2ccc(OC(F)F)cc2)ncc1COc1ccc2[nH]c(=O)ccc2c1` [Example 18, 6-((2-((4-(difluoromethoxy)phenyl)amino)-4-methoxypyrimidin-5-yl)methoxy)quinolin-2(1H)-one], the IC50 is 5 nM.
Same read-out and setting: for `FC(F)(F)Oc1ccc(Nc2ncc(COc3ccc4[nH]nc(C(F)(F)F)c4c3)cn2)cc1` [Example 15, N-(4-(trifluoromethoxy)phenyl)-5-(((3-(trifluoromethyl)-1H-indazol-5-yl)oxy)methyl)pyrimidin-2-amine] the value was > 3000 nM; for `Oc1ccc(OCc2cnc(Nc3ccc(Cl)cc3)nc2)cc1` [Example 12, 4-((2-(4-chlorophenylamino)pyrimidin-5-yl)methoxy)phenol], 394 nM.
As for `O=c1ccc2cc(CCc3cnc(Nc4ccc(OC(F)F)c(Cl)c4)nc3)ccc2[nH]1` [Example 105, 6-(2-(2-(3-chloro-4-(difluoromethoxy)phenylamino)pyrimidin-5-yl)ethyl)quinolin-2(1H)-one], the IC50 was found to be 2.5 nM.
For `O=c1ccc2cc(OCc3cnc(NCc4ccc(F)cc4)nc3)ccc2[nH]1` [Example 27], the IC50 came to 62 nM.
As for `Oc1ccc(OCc2cnc(Nc3ccc(Cl)c(Cl)c3)nc2)cc1` [Example 13, 4-((2-(3,4-dichlorophenylamino)pyrimidin-5-yl)methoxy)phenol], the IC50 worked out at 395 nM.
For the molecule `Oc1ccc(OCc2ccc(Nc3ccc(OC(F)F)cc3)nc2)cc1` [Example 10], the IC50 came out at 13 nM.
For the molecule `COc1ccc(Nc2ncc(COc3ccc4[nH]c(=O)ccc4c3)cn2)cc1` [Example 24], the concentration for half-maximal inhibition (IC50) was 90 nM.
